# According to ChEMBL document CHEMBL1201862, “PubChem BioAssay data set” (2004):
# The source made the active and inactive calls.
# Experiments:
# SN12K1 = experiment: cells; format: functional; conditions: Homo sapiens
# P388 = experiment: cells; format: functional; conditions: Mus musculus
# P388/ADR = experiment: cells; format: functional; conditions: Mus musculus
# [1] = biological target: T1, Heat shock factor protein 1 (Mus musculus, UniProt P38532); experiment: enhancement of HSF1-driven luciferase signal – cell-based, NIH3T3, luminescence, dose retest, confirmation (AID 435004); format: functional;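 also: stress induced by proteasome inhibitor MG132 added 30 min after compound; luciferase reporter driven by HSF1 response element in NIH3T3 cells; actives raise luminescence as potentiators of the MG132 stress response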
# T1 sequence (P38532 whole entry): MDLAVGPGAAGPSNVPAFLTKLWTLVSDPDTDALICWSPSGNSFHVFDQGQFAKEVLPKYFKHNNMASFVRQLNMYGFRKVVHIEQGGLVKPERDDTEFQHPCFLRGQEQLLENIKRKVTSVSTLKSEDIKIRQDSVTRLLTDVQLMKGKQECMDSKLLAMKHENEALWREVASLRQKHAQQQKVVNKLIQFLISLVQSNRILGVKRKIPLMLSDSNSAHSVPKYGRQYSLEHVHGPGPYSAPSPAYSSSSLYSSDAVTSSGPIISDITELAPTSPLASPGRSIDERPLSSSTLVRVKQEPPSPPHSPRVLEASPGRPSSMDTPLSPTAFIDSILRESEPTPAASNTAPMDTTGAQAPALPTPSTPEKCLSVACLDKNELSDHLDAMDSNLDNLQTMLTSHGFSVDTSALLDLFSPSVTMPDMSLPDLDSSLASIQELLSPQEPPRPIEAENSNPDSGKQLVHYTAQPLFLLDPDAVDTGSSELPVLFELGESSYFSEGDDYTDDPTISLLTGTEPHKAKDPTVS
# cells = format: functional
# [2] = biological target: T2, Rac GTPase-activating protein 1 (Homo sapiens, UniProt Q9H0H5); experiment: blockers of MgcRacGAP-driven Rac1 GTP hydrolysis – biochemical, ADP Hunter fluorescence, primary and confirmatory, confirmation (AID 624330); format: functional
# T2 sequence (Q9H0H5 whole entry): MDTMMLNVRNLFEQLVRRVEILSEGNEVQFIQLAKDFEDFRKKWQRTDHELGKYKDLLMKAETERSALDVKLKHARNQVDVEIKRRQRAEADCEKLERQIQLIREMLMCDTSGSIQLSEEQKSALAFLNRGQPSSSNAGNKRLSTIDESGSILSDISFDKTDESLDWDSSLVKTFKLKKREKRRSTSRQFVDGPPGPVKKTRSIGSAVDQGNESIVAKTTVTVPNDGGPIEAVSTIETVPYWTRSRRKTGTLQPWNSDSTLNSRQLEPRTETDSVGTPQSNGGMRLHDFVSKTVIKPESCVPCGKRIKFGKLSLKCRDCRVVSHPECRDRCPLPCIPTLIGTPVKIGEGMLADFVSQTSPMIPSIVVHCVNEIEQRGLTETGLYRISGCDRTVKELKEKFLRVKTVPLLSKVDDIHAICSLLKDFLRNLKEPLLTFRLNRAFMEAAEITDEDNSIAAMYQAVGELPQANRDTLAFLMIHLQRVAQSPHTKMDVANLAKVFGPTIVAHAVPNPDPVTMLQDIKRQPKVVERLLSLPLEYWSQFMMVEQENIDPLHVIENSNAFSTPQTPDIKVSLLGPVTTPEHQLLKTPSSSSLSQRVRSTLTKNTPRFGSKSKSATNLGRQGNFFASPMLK
# Large T antigen = Large T antigen (Simian virus 40, UniProt P03070); format: functional, Betapolyomavirus macacae;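 also: Confirmatory-stage PubChem screen for compounds that inhibit SV40 T antigen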
# Chain of Large T antigen (P03070 whole entry): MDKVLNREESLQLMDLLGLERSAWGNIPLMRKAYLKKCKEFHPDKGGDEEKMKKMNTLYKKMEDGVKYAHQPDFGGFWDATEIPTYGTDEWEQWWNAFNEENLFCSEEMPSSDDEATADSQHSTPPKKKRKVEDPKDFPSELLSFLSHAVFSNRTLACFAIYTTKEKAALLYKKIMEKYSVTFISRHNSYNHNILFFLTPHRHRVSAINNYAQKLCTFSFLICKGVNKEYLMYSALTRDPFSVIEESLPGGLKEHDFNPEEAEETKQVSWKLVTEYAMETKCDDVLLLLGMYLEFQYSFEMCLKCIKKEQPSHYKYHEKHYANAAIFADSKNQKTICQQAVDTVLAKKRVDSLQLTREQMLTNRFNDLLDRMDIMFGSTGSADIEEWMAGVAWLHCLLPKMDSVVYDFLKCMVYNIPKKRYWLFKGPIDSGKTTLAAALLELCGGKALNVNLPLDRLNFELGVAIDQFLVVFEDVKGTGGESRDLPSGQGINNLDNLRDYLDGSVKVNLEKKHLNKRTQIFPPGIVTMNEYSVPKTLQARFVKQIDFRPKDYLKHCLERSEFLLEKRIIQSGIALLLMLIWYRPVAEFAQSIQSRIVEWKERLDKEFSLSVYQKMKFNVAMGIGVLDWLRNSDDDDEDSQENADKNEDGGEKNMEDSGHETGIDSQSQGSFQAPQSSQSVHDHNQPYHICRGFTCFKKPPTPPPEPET
# [3] = viability of uninfected HEp-2 cells – cell-based, HTS, cytotoxicity control for RSV inhibitor project, dose response (AID 2410); format: functional; conditions: human respiratory syncytial virus
# INS1 = experiment: INS-1E survival protection against cytokine death – cell-based, luminescence, retest, dose response (AID 449756); format: functional; conditions: Rattus norvegicus;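 also: cell death triggered by IL-1 beta plus TNF-alpha plus IFN-gamma mixture; protective hits raise ATP signal compared with cytokine alone wells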
# [4] = Luminescence Cell-Based Dose Retest to Confirm Inhibitors of Cancer Stem Cells. [Related pubchem assays (depositor defined):AID2717, AID2721]; format: functional; conditions: Homo sapiens
smiles,measurement,setting,value
O=NN(CCCl)C(=O)NC1CCSc2ccccc21 (stereo unspecified),GI50,SN12K1,> 100 µM (inactive)
same,GI50,P388,21.1 µM (inactive)
same,GI50,P388/ADR,27.9 µM (inactive)
Cc1c2ccnc(-c3ccccc3)c2cc2c1[nH]c1ccccc12,GI50,SN12K1,1.39 µM (inactive)
same,GI50,P388,2.9 µM (inactive)
same,GI50,P388/ADR,2.63 µM (inactive)
CCOC(=O)N1CCC(NC(=O)c2cccs2)CC1,EC50,[1],> 260 µM (inactive)
O=C(OCc1cccc(F)c1)c1ccc2c(=O)n3c(nc2c1)CCC3,IC50,cells,12.1 µM (active)
Cc1cc(C)cc(OCC(O)CN2C(=O)NC(C)(C)C2=O)c1 (stereo unspecified),EC50,[1],> 260 µM (inactive)
CCCCOc1ccc(NC(=O)CN2CCN(CC)CC2)cc1,IC50,[2],71.7 µM (active)
Fc1ccc(CN2CCN(c3ncnc4scc(-c5ccccc5)c34)CC2)cc1,EC50,[1],> 260 µM (inactive)
Cc1cccc(N(CC(=O)Nc2ccccc2-c2ccccc2)S(=O)(=O)c2ccccc2)c1C,EC50,[1],> 260 µM (inactive)
CN(C)c1ccc(NC(=O)CN2CCC(C(=O)c3ccc(F)cc3)CC2)cc1,IC50,Large T antigen,10.4 µM (active)
CCCCOC(=O)Cn1c(-c2ccccc2)nc2ccccc2c1=O,IC50,cells,12.7 µM (active)
COc1ccc(NC2CCCN(C(=O)c3ccc(OC)o3)C2)cc1 (stereo unspecified),IC50,Large T antigen,16.7 µM (active)
Cc1ccc2c[nH]nc2c1N,IC50,Large T antigen,15.4 µM (active)
Cc1ccc(S(=O)(=O)N2CCOCC2)cc1NC(=O)CN1CCN(c2ccc(O)cc2)CC1,IC50,Large T antigen,5.03 µM (active)
Cc1nc(CN2CCN(Cc3nc(C(c4ccccc4)c4ccccc4)no3)CC2)cs1,EC50,[1],> 260 µM (inactive)
CCOC(=O)c1c(-c2ccccc2)csc1NC(=O)C(C)NCCCN1CCOCC1 (stereo unspecified),IC50,[2],86.1 µM (active)
COc1cc(OC)cc(-c2c(-c3cccs3)c3cc(-c4cc[nH]n4)ccc3n2C)c1,CC50,[3],11.9 µM (active)
COc1cc2c3c(c1OC)C1(C=CC(=O)C=C1)CC3N(C(=O)c1ccccc1)CC2 (stereo unspecified),EC50,[1],> 260 µM (inactive)
CN=C(S)NNC(=O)COc1cccc(C)c1C,CC50,[3],48.9 µM (active)
CS(=O)(=O)Cc1nc2ccccc2oc1=O,IC50,cells,2.93 µM (active)
same,IC50,[2],73.6 µM (active)
CCOc1ccc(CN2CCN(Cc3c[nH]c4ccccc34)CC2)cc1,AC50,INS1,7.24 µM (active)
same,IC50,[2],93 µM (active)
Cc1nc(-c2ccccc2)sc1C(=O)/C=C/c1ccc(Cl)cc1,AC50,[4],4.89 µM (active)
C=CCN(C(=O)Cn1nc(C)n2c(cc3cc(C)ccc32)c1=O)c1ccccc1,CC50,[3],> 50 µM (active)
CC(=O)N1CCN(CC(O)COc2ccc(Br)cc2)CC1 (stereo unspecified),IC50,[2],159 µM (active)
COc1cc(C=C2C(=O)NC(=O)NC2=O)ccc1OCc1ccc([N+](=O)[O-])cc1,IC50,[2],158 µM (active)
COc1cccc(OC)c1NC(=O)CN1CCN(C)CC1,IC50,[2],100 µM (active)
